Assay results as given in PMC12736293, “Design of Artificial Peptide Against HIV-1 Based on the Heptad-Repeat Rules and Membrane-Anchor Strategies” (Pharmaceuticals, 2025).
Read-outs that look alike come from different tables or passages of the source. Square brackets hold non-standard residues; d marks the D form. Peptide text beside a SMILES is read from it. * marks the point of attachment. X1 = CC(C)CCC[C@@H](C)[C@H]1CC[C@H]2[C@@H]3CC=C4C[C@@H](OC(=O)C*)CC[C@]4(C)[C@H]3CC[C@]12C; Palmitoyl = CCCCCCCCCCCCCCCC(=O)*; βAla = NCCC(=O)O

What was measured:
[1] = test system: HIV-1 Env-mediated cell–cell fusion (H9/HIV-1 IIIB cells and MT-2 cells); assay type: cell-based; conditions: for IC50: Calcein AM-labelled H9/HIV-1 IIIB cells, peptide 30 min at 37 °C, then MT-2 cells 2 h, fused cells counted by fluorescence microscopy, triplicate, mean ± SD, read-out: IC50, inhibitory activity on HIV-1 Env-mediated cell–cell fusion
Protocol: 4.2. HIV-1 Env-Mediated Cell–Cell Fusion Assay
Briefly, the fluorescent reagent Calcein AM (abcam, Shanghai, China) was used to label H9/HIV-1 IIIB cells (obtained from the Inner Mongolia Autonomous Region New Drug Screening Engineering Research Center in Inner Mongolia Medical University, Hohhot, China). First, 2.5 μL of Calcein AM was used to stain 2 × 10^5 H9/HIV-1 IIIB cells. After labeling at 37 °C for 30 min, the cells were washed twice with PBS (Thermo Fisher Scientific, Waltham, MA, USA) and resuspended in fresh RPMI 1640 (Sigma-Aldrich, St. Louis, MO, USA) medium supplemented with 10% FBS. Next, 50 μL of diluted peptides and 50 μL of a mixture containing 2 × 10^5 H9/HIV-1 IIIB cells/mL were added to a 96-well cell culture plate and incubated at 37 °C for 30 min. Subsequently, 1 × 10^5 MT-2 cells were added to the mixture and cultured at 37 °C for 2 h. The fused cells were quantified using an inverted fluorescence microscope. The IC50 values were calculated using CalcuSyn software (Version 2.0).

[2] = test system: HIV-1 pseudovirus derived from the JFRL macrophagic strain (subtype B) on U87 CD4+ CCR5+ cells; assay type: cell-based; conditions: luciferase read-out 48 h post-infection
Protocol: 4.3. Neutralization Assay of HIV-1 Pseudovirus
Briefly, U87 CD4^+ CCR5^+ cells (obtained from the Inner Mongolia Autonomous Region New Drug Screening Engineering Research Center in Inner Mongolia Medical University, Hohhot, China) (1 × 10^4 cells/well) were plated in 96-well tissue culture plates and incubated at 37 °C in a humidified 5% CO2 atmosphere for 12 h to allow cell adherence. Serial dilutions of the test peptides were prepared, and each dilution was mixed with the HIV-1 pseudovirus derived from the JFRL macrophagic strain (subtype B). After incubating the virus-peptide mixtures at 37 °C for 30 min to allow interaction, the mixtures were transferred to the pre-seeded U87 CD4^+ CCR5^+ cells. At 12 h post-infection, the culture medium was refreshed to remove unbound viruses and excess peptides. Forty-eight hours post-infection, the cells were lysed using Cell Culture Lysis Reagent (Promega, Madison, WI, USA), and the luminescence intensity (reflecting luciferase activity) was quantified using the Luciferase Assay System (Promega, E4030) according to the manufacturer’s instructions.

[3] = biological target: T1, N36/C34 six-helix bundle (6-HB) (Human immunodeficiency virus type 1 group M subtype B, UniProt P04578); assay: SE-HPLC analysis of 6-HB formation between N36 and C34; assay type: biochemical, HIV-1; conditions: gradual addition of peptide to the C34/N36 mixture; PBS pH 7.4, BioSep-SEC-S2000, 210 nm
T1 construct: corresponding to the NHR region of gp41 (residues 546–581); made in house; host or cells: chemical synthesis (Fmoc solid-phase)
T1 sequence (P04578 546-581): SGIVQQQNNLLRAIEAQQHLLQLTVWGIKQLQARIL

[4] = liver microsomes
Protocol: Phase I Metabolic Stability Assay
(§1) Experiments were carried out using the Phase I Metabolic Stability Research Kit (IPHASE, Suzhou, China). Solution A in the kit was pre-incubated at 37 °C for 5 min, and solution B was prepared from PBS (100 mM), the subject (or positive substrate), and liver microsomes. The above two were mixed and immediately placed in a 37 °C water bath for incubation. The incubation solution is quantitatively removed from the incubation system at preset time points (0, 5, 10, 15, 30, 60 min), and an equal volume of termination solution is added. Each sample was run in parallel three times. The substrate remaining amount at each time point was determined by RP-HPLC (Shimadzu preparative HPLC system, Shimadzu Corporation, Kyoto, Japan), the substrate remaining percentage was calculated, and the slope k was determined by linear regression analysis to calculate the Elimination half-life and Hepatic microsomal intrinsic clearance.

[5] = biological target: T1, N36/C34 six-helix bundle (6-HB); assay: N-PAGE detection of blocking of 6-HB formation between C34 and N36; assay type: biochemical, HIV-1; conditions: N36 (20 μM) with rising peptide concentration, 37 °C 30 min, then C34 (20 μM) 30 min
Protocol: Figure 5 (A) N-PAGE to detect the blocking of 6-HB formation between C34 and N36 by EK35S peptide. N36 (20 μM) with or without EK35S was incubated at 37 °C for 30 min, followed by the addition of C34 (20 μM). The mixture was incubated at 37 °C for another 30 min before loading into the gel; (B) N-PAGE to detect the blocking of 6-HB formation between C34 and N36 by EK35S-Plam peptide. N36 (20 μM) with or without EK35S-Plam was incubated at 37 °C for 30 min, followed by the addition of C34 (20 μM). The mixture was incubated at 37 °C for another 30 min before loading into the gel.
4.6. Methods for Native Polyacrylamide Gel Electrophoresis (N-PAGE)
Peptides, as well as their equimolar mixtures, were prepared at a final concentration of 100 μM in PBS (10 mM, pH 7.4) and incubated at 37 °C for 30 min. After incubation, the peptide solutions were mixed with methyl green loading buffer in a 1:1 ratio, and 20 μL of each sample was loaded into the wells of the gel. Gel electrophoresis was performed at room temperature, initially at a constant voltage of 90 V for 0.5 h, followed by 150 V for 2–3 h. The gels were then stained with Coomassie Brilliant Blue G250 (Bio-Rad, Shanghai, China), and images were captured using the ChampGel 6000 Imaging System (Sage Creation Ltd., Beijing, China).

in vitro = conditions: liver microsomes
Protocol: Phase I Metabolic Stability Assay
as §1

| Compound | IC50 [1] [µM] | IC50 [2] [µM] | other results |
| --- | --- | --- | --- |
| CC[C@H](C)[C@H](NC(C)=O)C(=O)N[C@@H](CCC(=O)O)C(=O)N[C@@H](CCC(=O)O)C(=O)N[C@@H](CC(C)C)C(=O)N[C@@H](CO)C(=O)N[C@@H](CCCCN)C(=O)N[C@@H](CCCCN)C(=O)N[C@H](C(=O)N[C@@H](CCC(=O)O)C(=O)N[C@@H](CCC(=O)O)C(=O)N[C@@H](CC(C)C)C(=O)N[C@@H](CO)C(=O)N[C@@H](CCCCN)C(=O)N[C@@H](CCCCN)C(=O)N[C@H](C(=O)N[C@@H](CCC(=O)O)C(=O)N[C@@H](CCC(=O)O)C(=O)N[C@@H](CC(C)C)C(=O)N[C@@H](CO)C(=O)N[C@@H](CCCCN)C(=O)N[C@@H](CCCCN)C(=O)N[C@H](C(=O)N[C@@H](CCC(=O)O)C(=O)N[C@@H](CCC(=O)O)C(=O)N[C@@H](CC(C)C)C(=O)N[C@@H](CO)C(=O)N[C@@H](CCCCN)C(=O)N[C@@H](CCCCN)C(=O)N[C@H](C(=O)N[C@@H](CCC(=O)O)C(=O)N[C@@H](CCC(=O)O)C(=O)N[C@@H](CC(C)C)C(=O)N[C@@H](CO)C(=O)N[C@@H](CCCCN)C(=O)N[C@@H](CCCCN)C(=O)NCCC(=O)N[C@@H](CSCC(=O)O[C@H]1CC[C@@]2(C)C(=CC[C@H]3[C@@H]4CC[C@H]([C@H](C)CCCC(C)C)[C@@]4(C)CC[C@@H]32)C1)C(N)=O)[C@@H](C)CC)[C@@H](C)CC)[C@@H](C)CC)[C@@H](C)CC [EK35S-Chol] (Ac-IEELSKKIEELSKKIEELSKKIEELSKKIEELSKK[βAla]C(X1)-NH2) | > 100 | 85.7 ± 2.02 |  |
| CCCCCCCCCCCCCCCC(=O)NCCCC[C@H](NC(=O)CCNC(=O)[C@H](CCCCN)NC(=O)[C@H](CCCCN)NC(=O)[C@H](CO)NC(=O)[C@H](CC(C)C)NC(=O)[C@H](CCC(=O)O)NC(=O)[C@H](CCC(=O)O)NC(=O)[C@@H](NC(=O)[C@H](CCCCN)NC(=O)[C@H](CCCCN)NC(=O)[C@H](CO)NC(=O)[C@H](CC(C)C)NC(=O)[C@H](CCC(=O)O)NC(=O)[C@H](CCC(=O)O)NC(=O)[C@@H](NC(=O)[C@H](CCCCN)NC(=O)[C@H](CCCCN)NC(=O)[C@H](CO)NC(=O)[C@H](CC(C)C)NC(=O)[C@H](CCC(=O)O)NC(=O)[C@H](CCC(=O)O)NC(=O)[C@@H](NC(=O)[C@H](CCCCN)NC(=O)[C@H](CCCCN)NC(=O)[C@H](CO)NC(=O)[C@H](CC(C)C)NC(=O)[C@H](CCC(=O)O)NC(=O)[C@H](CCC(=O)O)NC(=O)[C@@H](NC(=O)[C@H](CCCCN)NC(=O)[C@H](CCCCN)NC(=O)[C@H](CO)NC(=O)[C@H](CC(C)C)NC(=O)[C@H](CCC(=O)O)NC(=O)[C@H](CCC(=O)O)NC(=O)[C@@H](NC(C)=O)[C@@H](C)CC)[C@@H](C)CC)[C@@H](C)CC)[C@@H](C)CC)[C@@H](C)CC)C(N)=O [EK35S-Palm] (Ac-IEELSKKIEELSKKIEELSKKIEELSKKIEELSKK[βAla]K(Palmitoyl)-NH2) |  |  | fold more potent than the parent EK35S ([1]; cell–cell fusion and pseudovirus inhibition (Table 2 and Figure 3)): over 200 fold; effect on the 6-HB complex peak (SE-HPLC) [3]: decreased significantly; half-life [4]: 3.61 h; effect on the 6-HB band (N-PAGE) [5]: gradually became significantly lighter |
| Ac-IEELFKKIEELFKKIEELFKKIEELFKKIEELFKK-NH2 [EK35F] | 92.4 ± 9.22 | 110 ± 2.37 |  |
| Ac-IEELIKKIEELIKKIEELIKKIEELIKKIEELIKK-NH2 [EK35] | > 100 | 119 ± 1.39 |  |
| Ac-IEELMKKIEELMKKIEELMKKIEELMKKIEELMKK-NH2 [EK35M] | 15.8 ± 8.92 | 25.3 ± 0.85 |  |
| Ac-IEELSKKIEELSKKIEELSKKIEELSKKIEELSKK-NH2 [EK35S] | 5.98 ± 1.23 | 2.42 ± 0.18 | effect on the 6-HB complex peak (SE-HPLC) [3]: does not affect 6-HB peak; half-life (in vitro): 2.22 h; effect on the 6-HB band (N-PAGE) [5]: no obvious change |
| Ac-IEELYKKIEELYKKIEELYKKIEELYKKIEELYKK-NH2 [EK35Y] | 23.2 ± 6.72 | 15.2 ± 0.65 |  |
| Enfuvirtide | 0.008 ± 0.002 | 0.00824 ± 0.00087 |  |
| IEELSKK IEELSKK IEELSKK IEELSKK IEELSKK-OApc [EK35S-OApc, EK35S conjugated with protected oleanolic acid derivative OApc via click chemistry] | 4.82 ± 0.89 | 1.88 ± 0.14 |  |
| enfuvirtide |  |  | half-life (in vitro): 2.51 h |
